{
  "source": "patent US7081461B1",
  "about": "“Quinazoline compounds and pharmaceutical compositions containing them” (AstraZeneca AB, priority 1999, dated 2006)",
  "key": {"[1]": {"target": "T1, aurora2 kinase (Homo sapiens, UniProt O14965)", "T1 construct": "6 His with spacer region and rTEV protease cleavage site (pFastBac HTc) (N); made in house; host or cells: Spodoptera frugiperda Sf21 insect cells (baculovirus, pFastBac HTc)", "T1 sequence (O14965 1-403)": "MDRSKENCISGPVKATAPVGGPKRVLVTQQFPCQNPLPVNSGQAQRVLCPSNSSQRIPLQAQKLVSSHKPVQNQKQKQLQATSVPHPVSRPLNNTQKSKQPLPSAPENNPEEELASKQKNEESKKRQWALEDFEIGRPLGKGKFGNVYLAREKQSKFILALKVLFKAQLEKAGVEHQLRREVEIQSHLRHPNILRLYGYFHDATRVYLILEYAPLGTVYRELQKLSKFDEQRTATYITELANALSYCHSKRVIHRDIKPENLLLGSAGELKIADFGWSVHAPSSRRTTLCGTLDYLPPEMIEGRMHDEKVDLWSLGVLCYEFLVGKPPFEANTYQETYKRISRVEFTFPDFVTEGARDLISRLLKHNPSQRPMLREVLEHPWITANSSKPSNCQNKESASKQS", "assay": "In vitro aurora2 kinase inhibition test", "assay_type": "biochemical"}, "[2]": {"test_system": "MCF-7 cells", "assay": "In vitro cell proliferation assay, Assay 1 (CyQUANT cell density)", "assay_type": "cell-based", "conditions": "Homo sapiens, MCF7, 72 h, MCF-7, 3 days with compound, read-out: concentration giving 50% inhibition of cell proliferation", "source_text": "(b) In Vitro Cell Proliferation Assay\nThese and other assays can be used to determine the ability of a test compound to inhibit the growth of adherent mammalian cell lines, for example the human tumour cell line MCF7.\nAssay 1: MCF-7 (ATCC HTB-22) or other adherent cells were typically seeded at 1×10^3 cells per well (excluding the peripheral wells) in DMEM (Sigma Aldrich) without phenol red, plus 10% foetal calf serum, 1% L-glutamine and 1% penicillin/streptomycin in 96 well tissue culture treated clear plates (Costar). The following day (day 1), the media was removed from a no treatment control plate and the plate stored at −80° C. […] The fluorescence of the wells was then measured using a fluorescence microplate reader (gain 70, 2 reads per well, 1 cycle with excitation 485 nm and emission 530 nm using a CytoFluor plate reader (PerSeptive Biosystems Inc.)). […]"}, "[3]": {"test_system": "MCF7 cells", "assay": "In vitro cell cycle analysis assay (FACS, propidium iodide)", "assay_type": "cell-based, human", "conditions": "MCF7, 24.8 μM, 24 hours", "method": "(c) In Vitro Cell Cycle Analysis Assay\nThis assay determines the ability of a test compound to arrest cells in specific phases of the cell cycle. Many different mammalian cell lines could be used in this assay and MCF7 cells are included here as an example. MCF-7 cells were seeded at 3×10^5 cells per T25 flask (Costar) in 5 ml DMEM (no phenol red 10% FCS, 1% L-glutamine 1% penicillin/streptomycin). Flasks were then incubated overnight in a humidified 37° C. incubator with 5% CO2. The following day 1 ml of DMEM (no phenol red 10% FCS, 1% L-glutamine 1% penicillin/streptomycin) carrying the appropriate concentration of test compound solubilised in DMSO was added to the flask. A no compound control treatments was also included (0.5% DMSO). The cells were then incubated for a defined time (usually 24 hours) with compound. After this time the media was aspirated from the cells and they were washed with 5 ml of prewarmed (37° C.) sterile PBSA, then detached from the flask by brief incubation with trypsin and followed by resuspension in 10 ml of 1% Bovine Serum Albumin (BSA, Sigma-Aldrich Co.) in sterile PBSA. The samples were then centrifuged at 2200 rpm for 10 min. The supernatant was aspirated and the cell pellet was resuspended in 200%1 of 0.1% (w/v) Tris sodium citrate, 0.0564% (w/v) NaCl, 0.03% (v/v) Nonidet NP40, [pH 7.6]. Propridium Iodide (Sigma Aldrich Co.) was added to 40 μg/ml and RNAase A (Sigma Aldrich Co.) to 100 μg/ml. The cells were then incubated at 37° C. for 30 minutes. The samples were centrifuged at 2200 rpm for 10 min, the supernatant removed and the remaining pellet (nuclei) resuspended in 200%1 of sterile PBSA. […] The samples were then transferred to LPS tubes and DNA content per cell analysed by Fluorescence activated cell sorting (FACS) using a FACScan flow cytometer (Becton Dickinson). Typically 25000 events were counted and recorded using […]. Cell cycle distribution of the population was calculated using Modfit software (Verity Software) and expressed as percentage of cells in G0/G1, S and G2/M phases of the cell cycle."}},
  "data": [
    {"smiles": "COc1ccnc(COc2ccc(Nc3ncnc4cc(OC)c(OC)cc34)cc2C)c1", "note": "[Compound 43]", "values": [
      {"measurement": "IC50", "setting": "[1]", "value": 0.465, "unit": "µM"},
      {"measurement": "IC50", "setting": "[2]", "value": 12.4, "unit": "µM"},
      {"measurement": "% Cells in G1", "setting": "[3]", "value": 37.29, "unit": "%"},
      {"measurement": "% Cells in G2/M", "setting": "[3]", "value": 28.78, "unit": "%"},
      {"measurement": "% Cells in S", "setting": "[3]", "value": 33.93, "unit": "%"}
    ]}
  ]
}
